PubChem BioAssay AID256 (DTP/NCI, 2004)
Where “and” joins values, the source holds several entries; their conditions need not be identical. Identical values can stand only once. Toxic doses and inconclusive results are not listed. Rule for the calls: active = survival T/C of 150% or more; inactive = T/C below 125% in these data.

Test system: CD2F1 mice, L1210 leukemia ip, survival T/C
Assay: NCI In Vivo Anticancer Drug Screen. Data for tumor model L1210 Leukemia (intraperitoneal) in CD2F1 (CDF1) mice
Conditions: higher = longer survival
How it was run: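 Vehicle-treated tumor-bearing mice served as controls (C) for compound-treated mice (T). Reported figure is T divided by C.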

[1] = endpoint: mean survival time, dose: 1.0 mg/kg/injection, schedule: Q01DX009 (ip), vehicle: saline
[2] = endpoint: mean survival time, dose: 2.0 mg/kg/injection, schedule: Q01DX009 (ip), vehicle: saline
[3] = endpoint: mean survival time, dose: 100.0 mg/kg/injection, schedule: Q01DX009 (ip), vehicle: saline with Tween-80
[4] = endpoint: mean survival time, dose: 200.0 mg/kg/injection, schedule: Q01DX009 (ip), vehicle: saline with Tween-80
[5] = endpoint: mean survival time, dose: 400.0 mg/kg/injection, schedule: Q01DX009 (ip), vehicle: saline with Tween-80
[6] = endpoint: mean survival time, dose: 100.0 mg/kg/injection, schedule: Q01DX001 (ip), vehicle: saline
[7] = endpoint: mean survival time, dose: 200.0 mg/kg/injection, schedule: Q01DX001 (ip), vehicle: saline
[8] = endpoint: mean survival time, dose: 400.0 mg/kg/injection, schedule: Q01DX001 (ip), vehicle: saline
[9] = endpoint: mean survival time, dose: 50.0 mg/kg/injection, schedule: Q01DX009 (ip), vehicle: saline with Tween-80
[10] = endpoint: mean survival time, dose: 6.25 mg/kg/injection, schedule: Q01DX009 (ip), vehicle: saline with Tween-80

Measured: T/C

COc1cccc2c1C(=O)c1c(O)c3c(c(O)c1C2=O)C[C@@](O)(C(=O)CO)C[C@@H]3OC1CC(N(C)C)C(O)C(C)O1 (some centres undefined)
inactive: endpoint: mean survival time, dose: 0.25 mg/kg/injection, schedule: Q01DX009 (ip), vehicle: saline 118 % of control and 108 % of control | endpoint: mean survival time, dose: 0.5 mg/kg/injection, schedule: Q01DX009 (ip), vehicle: saline 117 % of control and 121 % of control | [1] 115 % of control and 124 % of control | [2] 97 % of control and 102 % of control

O=C1c2ccccc2C(=O)N1CC(O)CN1C(=O)c2ccccc2C1=O
inactive: endpoint: mean survival time, dose: 50.0 mg/kg/injection, schedule: Q01DX001 (ip), vehicle: other 98 % of control | endpoint: mean survival time, dose: 100.0 mg/kg/injection, schedule: Q01DX001 (ip), vehicle: other 100 % of control | endpoint: mean survival time, dose: 200.0 mg/kg/injection, schedule: Q01DX001 (ip), vehicle: other 93 % of control | endpoint: mean survival time, dose: 400.0 mg/kg/injection, schedule: Q01DX001 (ip), vehicle: other 94 % of control

O=C1C[C@H]2[C@H](CO)[C@@H](OC(=O)c3ccc(-c4ccccc4)cc3)C[C@H]2O1
inactive: endpoint: mean survival time, dose: 100.0 mg/kg/injection, schedule: Q01DX001 (ip), vehicle: alcohol 94 % of control | endpoint: mean survival time, dose: 200.0 mg/kg/injection, schedule: Q01DX001 (ip), vehicle: alcohol 88 % of control | endpoint: mean survival time, dose: 400.0 mg/kg/injection, schedule: Q01DX001 (ip), vehicle: alcohol 92 % of control

CC1(C(=O)O)CCOC1=O (centres undefined)
inactive: endpoint: mean survival time, dose: 100.0 mg/kg/injection, schedule: Q04DX002 (ip), vehicle: saline 102 % of control | endpoint: mean survival time, dose: 200.0 mg/kg/injection, schedule: Q04DX002 (ip), vehicle: saline 107 % of control

CC(=O)Nc1cccc(OCOc2ccc([N+](=O)[O-])cc2)c1
inactive: endpoint: mean survival time, dose: 100.0 mg/kg/injection, schedule: Q01DX001 (ip), vehicle: Klucel (hydroxypropylcellulose) (HPC) 90 % of control | endpoint: mean survival time, dose: 200.0 mg/kg/injection, schedule: Q01DX001 (ip), vehicle: Klucel (hydroxypropylcellulose) (HPC) 110 % of control | endpoint: mean survival time, dose: 400.0 mg/kg/injection, schedule: Q01DX001 (ip), vehicle: Klucel (hydroxypropylcellulose) (HPC) 97 % of control

Cc1cnccc1Br
inactive: endpoint: mean survival time, dose: 25.0 mg/kg/injection, schedule: Q01DX009 (ip), vehicle: water 96 % of control | endpoint: mean survival time, dose: 50.0 mg/kg/injection, schedule: Q01DX009 (ip), vehicle: water 96 % of control | endpoint: mean survival time, dose: 100.0 mg/kg/injection, schedule: Q01DX009 (ip), vehicle: water 86 % of control | endpoint: mean survival time, dose: 200.0 mg/kg/injection, schedule: Q01DX009 (ip), vehicle: water 90 % of control

COc1ccc(OC)c(NC(=O)Oc2ccc(-c3ccccc3)cc2Cl)c1
inactive: [3] 105 % of control | [4] 102 % of control | [5] 106 % of control

O=C(CNC(=O)Nc1cccc(Cl)c1)N/N=C/c1ccccc1Cl
inactive: [3] 106 % of control | [4] 109 % of control | [5] 112 % of control

NC(CC(=O)c1ccccc1)C(=O)O (centres undefined)
inactive: [6] 98 % of control | [7] 93 % of control | [8] 90 % of control

CC1=NCCCN=C(C)C([N+](=O)[O-])C=NC(C)(C)CN=CC1[N+](=O)[O-].[Ni] (centres undefined)
inactive: endpoint: mean survival time, dose: 12.5 mg/kg/injection, schedule: Q04DX002 (ip), vehicle: saline with Tween-80 97 % of control | endpoint: mean survival time, dose: 25.0 mg/kg/injection, schedule: Q04DX002 (ip), vehicle: saline with Tween-80 97 % of control | endpoint: mean survival time, dose: 50.0 mg/kg/injection, schedule: Q04DX002 (ip), vehicle: saline with Tween-80 93 % of control

OCC#CCO
inactive: endpoint: mean survival time, dose: 12.0 mg/kg/injection, schedule: Q01DX009 (ip), vehicle: saline 94 % of control | endpoint: mean survival time, dose: 25.0 mg/kg/injection, schedule: Q01DX009 (ip), vehicle: saline 93 % of control | endpoint: mean survival time, dose: 50.0 mg/kg/injection, schedule: Q01DX009 (ip), vehicle: saline 104 % of control

N=C(N)c1ccc(NC(=O)c2ccc(C(=O)Nc3ccc(C(=N)N)cc3)c(N)c2)cc1
inactive: endpoint: median survival time, dose: 12.5 mg/kg/injection, schedule: Q01DX009 (ip), vehicle: saline with Tween-80 101 % of control and 110 % of control | endpoint: median survival time, dose: 25.0 mg/kg/injection, schedule: Q01DX009 (ip), vehicle: saline with Tween-80 102 % of control and 112 % of control | endpoint: median survival time, dose: 50.0 mg/kg/injection, schedule: Q01DX009 (ip), vehicle: saline with Tween-80 119 % of control and 103 % of control | endpoint: median survival time, dose: 100.0 mg/kg/injection, schedule: Q01DX009 (ip), vehicle: saline with Tween-80 121 % of control and 96 % of control and 112 % of control | endpoint: median survival time, dose: 200.0 mg/kg/injection, schedule: Q01DX009 (ip), vehicle: saline with Tween-80 107 % of control

Nc1nc2c(c(=O)[nH]1)N(C(=O)NCCCl)C(CNc1ccc(C(=O)NC(CCC(=O)O)C(=O)O)cc1)CN2 (centres undefined)
inactive: endpoint: mean survival time, dose: 100.0 mg/kg/injection, schedule: Q01DX001 (ip), vehicle: sodium bicarbonate 94 % of control | endpoint: mean survival time, dose: 200.0 mg/kg/injection, schedule: Q01DX001 (ip), vehicle: sodium bicarbonate 100 % of control | endpoint: mean survival time, dose: 400.0 mg/kg/injection, schedule: Q01DX001 (ip), vehicle: sodium bicarbonate 97 % of control

O=C(O)/C=C\C(=O)O
inactive: endpoint: mean survival time, dose: 0.5 mg/kg/injection, schedule: Q04DX003 (ip), vehicle: saline with Tween-80 107 % of control | [1] 100 % of control | endpoint: mean survival time, dose: 1.0 mg/kg/injection, schedule: Q04DX003 (ip), vehicle: saline with Tween-80 95 % of control | endpoint: mean survival time, dose: 1.56 mg/kg/injection, schedule: Q04DX003 (ip), vehicle: saline 89 % of control and 95 % of control | [2] 97 % of control | endpoint: mean survival time, dose: 3.0 mg/kg/injection, schedule: Q04DX003 (ip), vehicle: saline with Tween-80 103 % of control | endpoint: mean survival time, dose: 3.13 mg/kg/injection, schedule: Q04DX003 (ip), vehicle: saline 87 % of control and 91 % of control | endpoint: mean survival time, dose: 6.0 mg/kg/injection, schedule: Q04DX003 (ip), vehicle: saline with Tween-80 103 % of control | endpoint: mean survival time, dose: 6.25 mg/kg/injection, schedule: Q04DX003 (ip), vehicle: saline 92 % of control and 96 % of control

C/C(=N/NC(=O)c1ccccc1)c1ccccc1O
inactive: endpoint: mean survival time, dose: 100.0 mg/kg/injection, schedule: Q01DX009 (ip), vehicle: Klucel (hydroxypropylcellulose) (HPC) 92 % of control | endpoint: mean survival time, dose: 100.0 mg/kg/injection, schedule: Q04DX003 (ip), vehicle: Klucel (hydroxypropylcellulose) (HPC) 97 % of control | endpoint: mean survival time, dose: 200.0 mg/kg/injection, schedule: Q01DX009 (ip), vehicle: Klucel (hydroxypropylcellulose) (HPC) 94 % of control | endpoint: mean survival time, dose: 200.0 mg/kg/injection, schedule: Q04DX003 (ip), vehicle: Klucel (hydroxypropylcellulose) (HPC) 100 % of control | endpoint: mean survival time, dose: 400.0 mg/kg/injection, schedule: Q01DX009 (ip), vehicle: Klucel (hydroxypropylcellulose) (HPC) 94 % of control | endpoint: mean survival time, dose: 400.0 mg/kg/injection, schedule: Q04DX003 (ip), vehicle: Klucel (hydroxypropylcellulose) (HPC) 96 % of control

O=C1C(=O)c2ccccc2-c2ccccc21
inactive: [9] 98 % of control | [3] 102 % of control

COc1cc(OC)c(/C=C/c2cc3ccccc3c[n+]2C)c(OC)c1
inactive: endpoint: mean survival time, dose: 3.13 mg/kg/injection, schedule: Q01DX009 (ip), vehicle: saline with Tween-80 117 % of control | [10] 117 % of control

O=C1CCCC/C1=N\Nc1ccccc1
inactive: [6] 91 % of control | [7] 89 % of control | [8] 97 % of control

O=P(N1CCCC1)(N1CCCC1)N1CCCC1.O=[N+]([O-])O.O=[N+]([O-])O.[O]=[U]=[O]
inactive: endpoint: mean survival time, dose: 3.12 mg/kg/injection, schedule: Q04DX003 (ip), vehicle: Klucel (hydroxypropylcellulose) (HPC) 102 % of control | endpoint: mean survival time, dose: 12.5 mg/kg/injection, schedule: Q04DX003 (ip), vehicle: Klucel (hydroxypropylcellulose) (HPC) 102 % of control

CCc1ccc(C2=C(O)C(=O)C(c3ccc(CC)cc3)=C(O)C2=O)cc1
inactive: endpoint: mean survival time, dose: 1.56 mg/kg/injection, schedule: Q01DX001 (ip), vehicle: Klucel (hydroxypropylcellulose) (HPC) 97 % of control | endpoint: mean survival time, dose: 3.12 mg/kg/injection, schedule: Q01DX009 (ip), vehicle: saline with Tween-80 97 % of control | endpoint: mean survival time, dose: 3.13 mg/kg/injection, schedule: Q01DX001 (ip), vehicle: Klucel (hydroxypropylcellulose) (HPC) 96 % of control | endpoint: mean survival time, dose: 6.25 mg/kg/injection, schedule: Q01DX001 (ip), vehicle: Klucel (hydroxypropylcellulose) (HPC) 96 % of control | [10] 89 % of control and 109 % of control | endpoint: mean survival time, dose: 12.5 mg/kg/injection, schedule: Q01DX009 (ip), vehicle: saline with Tween-80 104 % of control | endpoint: mean survival time, dose: 25.0 mg/kg/injection, schedule: Q01DX001 (ip), vehicle: Klucel (hydroxypropylcellulose) (HPC) 120 % of control | endpoint: mean survival time, dose: 25.0 mg/kg/injection, schedule: Q01DX009 (ip), vehicle: saline with Tween-80 106 % of control and 111 % of control | [9] 119 % of control

CCC(C)CC(=O)Nc1cccc(O)c1 (centres undefined)
inactive: endpoint: mean survival time, dose: 100.0 mg/kg/injection, schedule: Q04DX003 (ip), vehicle: saline with Tween-80 96 % of control | endpoint: mean survival time, dose: 200.0 mg/kg/injection, schedule: Q04DX003 (ip), vehicle: saline with Tween-80 96 % of control | endpoint: mean survival time, dose: 400.0 mg/kg/injection, schedule: Q04DX003 (ip), vehicle: saline with Tween-80 91 % of control
